Values of other authors, collected in US20050249757A1, “Pharmaceutical cream formulations” (Glenmark Pharmaceuticals Limited, priority 2004, published 2005).

Legend:
[1] = target: macrophilin-12 (FKBP-12) (Homo sapiens, UniProt P62942)
[2] = system: human T cells; settings: Th1-type and Th2-type cytokines
[3] = system: human subjects; settings: 50 human subjects, total of 15 applications; manufacturer's brochure
[4] = system: rabbit skin; settings: described as practically nonirritating

Chain of macrophilin-12 (FKBP-12) (P62942 whole entry): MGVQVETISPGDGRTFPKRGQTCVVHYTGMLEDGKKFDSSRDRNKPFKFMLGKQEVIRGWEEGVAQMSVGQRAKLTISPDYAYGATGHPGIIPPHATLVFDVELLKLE

| SMILES | Binding affinity to macrophilin-12 (FKBP-12) [1] | Concentration inhibiting Interleukin-2, interferon gamma, Interleukin-4 and Interleukin-10 cytokine synthesis [2] | Dermal irritation and sensitization in repeated insult patch test [3] | PII (skin irritation) [4] |
| --- | --- | --- | --- | --- |
| CC[C@@H]1/C=C(\C)C[C@H](C)C[C@H](OC)[C@H]2O[C@@](O)(C(=O)C(=O)N3CCCC[C@H]3C(=O)O[C@H](/C(C)=C/[C@@H]3CC[C@H](Cl)[C@H](OC)C3)[C@H](C)[C@@H](O)CC1=O)[C@H](C)C[C@@H]2OC [pimecrolimus, (1R,9S,12S,13R,14S,17R,18E,21 S,23S,24R,25S,27R)-12-[(1E)-2-{(1R,3R,4S)-4-chloro-3-methoxycyclohexyl}-1-methylvinyl]-17-ethyl-1,14-dihydroxy-23,25-dimethoxy-13,19,21,27-tetramethyl-11,28-dioxa-4-aza-tricyclo[22.3.1.04,9]octacos-18-ene-2,3,10,16-tetraone] | high affinity | nanomolar concentrations |  |  |
| CN1CCCC1=O [Pharmasolve, N-methyl-2-pyrrolidone] |  |  | neither a primary dermal irritant nor a sensitizer | 0.5 |
